Data from patent publication US5726159A, “Antithrombotic agents” (Eli Lilly and Company, priority 1995, dated 1998).
Structures can show the parent of a compound that is named as a salt.

Columns and labels:
Assay type in all cases: biochemical
t-PA = target: T1, t-PA (Homo sapiens, UniProt P00750); test: Kass for t-PA, chromogenic substrate
T1 construct: purchased American Diagnostica, Greenwich, Conn
Protocol: (§1) By substantially following the procedures described above for human thrombin, and using other human blood coagulation system serine proteases and proteases of the fibrinolytic system with the appropriate chromogenic substrates, identified below, selectivity of the compounds of the present invention with respect to the coagulation factor serine proteases and with respect to the fibrinolytic system serine proteases are evaluated as well as their substantial lack of interference with serine proteases of the fibrinolytic system. […] This would be important to the therapeutic use of such agents as an adjunct to streptokinase, t-PA or urokinase thrombolytic therapy and to the use of such agents as an endogenous fibrinolysis-sparing (with respect to t-PA and urokinase) antithrombotic agent. In addition to the lack of interference with the amidase activity of the fibrinolytic proteases, such fibrinolytic system sparing can be studied by the use of human plasma clots and their lysis by the respective fibrinolytic plasminogen activators.

Human plasma [1] = test: Human plasma anticoagulation, thrombin time (TT); details: concentration required to double the clotting time
Outline: (§2)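 Values are concentrations estimated by linear extrapolation to double the clotting time in human plasma containing test compound across a wide range. Thrombin time was triggered with bovine thrombin at 10 NIH units/mL plus saline, and prothrombin time with Thromboplastin-C plus saline. For APTT, plasma sat with Actin reagent for 120 seconds before 0.02M CaCl2.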

Human plasma [2] = test: Human plasma anticoagulation, activated partial thromboplastin time (APTT); details: concentration required to double the clotting time
Outline: as §2

Human plasma [3] = test: Human plasma anticoagulation, prothrombin time (PT); details: concentration required to double the clotting time
Outline: as §2

factor Xa = factor Xa (Homo sapiens, UniProt P00742); test: Kass for factor Xa, chromogenic substrate
Chain of factor Xa (P00742 235-488 limits assumed): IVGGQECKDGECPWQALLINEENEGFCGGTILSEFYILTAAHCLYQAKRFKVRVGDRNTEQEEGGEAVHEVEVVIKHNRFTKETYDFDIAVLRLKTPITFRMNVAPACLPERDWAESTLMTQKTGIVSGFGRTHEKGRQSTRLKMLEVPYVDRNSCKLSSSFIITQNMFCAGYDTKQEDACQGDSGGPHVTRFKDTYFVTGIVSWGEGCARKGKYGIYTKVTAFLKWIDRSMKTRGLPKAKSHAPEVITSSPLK
Chain of factor Xa (P00742 41-179 partner limits assumed): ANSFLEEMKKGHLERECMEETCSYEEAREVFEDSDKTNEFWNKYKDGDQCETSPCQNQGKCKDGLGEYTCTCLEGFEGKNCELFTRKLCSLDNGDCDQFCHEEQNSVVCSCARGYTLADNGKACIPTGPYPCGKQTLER
Protocol: as §1
(§3) Chromogenic substrates: N-Benzoyl-Ile-Glu-Gly-Arg-p-nitroanilide (for factor Xa); N-Cbz-D-Arg-Gly-Arg-p-nitroanilide (for factor IXa assay as the factor Xa substrate); Pyroglutamyl-Pro-Arg-p-nitroanilide (for Factor XIa and for aPC); H-D-Pro-Phe-Arg-p-nitroanilide (for factor XIIa); and Pyroglutamyl-Gly-Arg-p-nitroanilide (for urokinase); are purchased from KabiVitrnm, Stockholm, Sweden, or from Midwest Biotech, Fishers, Ind. Bovine trypsin is purchased from Worthington Biochemicals, Freehold, N.J., and human plasma kallikrein from Kabi Vitrum, Stockholm, Sweden. Chromogenic substrate H-D-Pro-Phe-Arg-p-nitroanilide for plasma kallikrein is purchased from Kabi Vitrum, Stockholm, Sweden. N-Benzoyl-Phe-Val-Arg-p-nitroanilide, the substrate for human thrombin and for trypsin, is synthesized according to procedures described above for the compounds of the present invention, using known methods of peptide coupling from commercially available reactants or purchased from Midwest Biotech, Fishers, Ind.

Bovine trypsin = target: T2, Bovine trypsin (Bos taurus, UniProt P00760); test: Kass for trypsin, chromogenic substrate
T2 construct: Bovine trypsin is purchased from Worthington Biochemicals, Freehold, N.J; purchased Worthington Biochemicals, Freehold, N.J
T2 sequence (P00760 24-246): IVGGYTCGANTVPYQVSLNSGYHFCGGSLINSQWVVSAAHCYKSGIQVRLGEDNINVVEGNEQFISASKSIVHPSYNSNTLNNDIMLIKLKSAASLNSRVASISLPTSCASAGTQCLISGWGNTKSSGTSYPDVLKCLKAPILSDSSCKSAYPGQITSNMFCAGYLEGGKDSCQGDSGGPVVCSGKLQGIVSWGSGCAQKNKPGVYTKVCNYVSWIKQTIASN
Protocol: as §1, §3

human thrombin = human thrombin (Homo sapiens, UniProt P00734); test: Inhibition of thrombin amidase activity (Kass), chromogenic substrate; details: association constant, mean over concentrations
Human plasmin = target: T3, Human plasmin (Homo sapiens, UniProt P00747); test: Kass for plasmin, chromogenic substrate
T3 construct: Human plasmin is purchased from Boehringer Mannheim, Indianapolis, Ind; purchased Boehringer Mannheim, Indianapolis, Ind
T3 sequence (P00747 581-810 limits assumed): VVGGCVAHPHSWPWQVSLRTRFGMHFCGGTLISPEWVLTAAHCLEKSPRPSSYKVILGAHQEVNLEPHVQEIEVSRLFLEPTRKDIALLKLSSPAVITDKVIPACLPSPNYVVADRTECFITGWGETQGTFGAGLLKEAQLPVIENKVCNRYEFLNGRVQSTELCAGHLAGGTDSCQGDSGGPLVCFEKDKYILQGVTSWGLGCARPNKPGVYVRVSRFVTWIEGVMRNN
T3 sequence (P00747 97-580 partner limits assumed): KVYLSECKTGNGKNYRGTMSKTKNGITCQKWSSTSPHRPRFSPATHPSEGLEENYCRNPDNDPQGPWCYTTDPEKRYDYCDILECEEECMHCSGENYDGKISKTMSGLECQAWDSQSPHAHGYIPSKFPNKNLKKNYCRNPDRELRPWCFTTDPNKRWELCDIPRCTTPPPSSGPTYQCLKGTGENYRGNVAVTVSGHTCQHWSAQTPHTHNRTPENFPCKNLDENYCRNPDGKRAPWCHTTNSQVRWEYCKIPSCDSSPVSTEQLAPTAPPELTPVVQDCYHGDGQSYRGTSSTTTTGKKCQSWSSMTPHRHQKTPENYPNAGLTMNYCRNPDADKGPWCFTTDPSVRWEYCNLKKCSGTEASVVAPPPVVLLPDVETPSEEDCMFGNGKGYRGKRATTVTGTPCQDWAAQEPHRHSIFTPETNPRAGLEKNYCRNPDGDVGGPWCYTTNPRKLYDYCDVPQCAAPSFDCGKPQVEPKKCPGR
Protocol: as §1

T1 sequence (P00750 36-562): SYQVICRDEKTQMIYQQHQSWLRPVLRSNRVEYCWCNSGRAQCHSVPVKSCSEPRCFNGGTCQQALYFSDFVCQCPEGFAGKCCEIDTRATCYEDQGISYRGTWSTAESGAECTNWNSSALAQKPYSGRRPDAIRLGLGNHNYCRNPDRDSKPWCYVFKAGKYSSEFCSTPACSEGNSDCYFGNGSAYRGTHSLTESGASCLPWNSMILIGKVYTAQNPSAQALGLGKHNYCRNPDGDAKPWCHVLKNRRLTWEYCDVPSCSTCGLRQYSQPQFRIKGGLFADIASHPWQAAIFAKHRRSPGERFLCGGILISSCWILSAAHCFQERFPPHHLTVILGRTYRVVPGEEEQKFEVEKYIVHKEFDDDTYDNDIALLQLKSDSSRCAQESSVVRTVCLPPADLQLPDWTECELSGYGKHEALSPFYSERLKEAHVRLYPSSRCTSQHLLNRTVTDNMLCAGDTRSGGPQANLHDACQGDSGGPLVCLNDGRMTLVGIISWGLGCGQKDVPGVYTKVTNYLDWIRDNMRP

| Compound | Kass t-PA (t-PA) | 2x Clotting time TT (Human plasma [1]) | 2x Clotting time APTT (Human plasma [2]) | 2x Clotting time PT (Human plasma [3]) | Kass Xa (factor Xa) | Kass Trypsin (Bovine trypsin) | Kass Human Thrombin (human thrombin) | Kass Plasmin (Human plasmin) |
| --- | --- | --- | --- | --- | --- | --- | --- | --- |
| N=C(N)c1ccc(CCCNC(=O)[C@@H]2CCCN2C(=O)[C@@H]2NCC[C@@H]3CCCC[C@@H]32)cc1 [Example 32, 1-Piq-Pro-p-NHCH2 CH2 CH2 -C6 H4 C(=NH)NH2.HCl] | 0.01 × 10^6 (L/mole) | 3,100 ng/mL | 28,500 ng/mL | 47,800 ng/mL |  |  |  |  |
| CCS(=O)(=O)N[C@H](Cc1ccccc1)C(=O)N1CCC[C@H]1C(=O)NCCc1cccc(NC(=N)N)c1 [Example 37, EtSO2 -D-Phe-Pro-m-NHCH2 CH2 C6 H4 NHC(NH)NH2.HCl] |  | > 9,000 ng/mL | > 9,000 ng/mL | > 9,000 ng/mL | < 0.009 × 10^6 (L/mole) |  |  |  |
| N=C(N)c1ccc(CNC(=O)[C@@H]2CCCN2C(=O)[C@@H](CC2CCCCC2)NCC(=O)O)cc1 [Example 48, HOOCCH2 -D-Cha-Pro-p-NHCH2 C6 H4 C(NH)NH2.HCl] |  | 2. ng/mL | 33 ng/mL | 59 ng/mL |  | 250. × 10^6 (L/mole) |  |  |
| N=C(N)c1ccc(CNC(=O)[C@@H]2C[C@@H]3CCCC[C@@H]3N2C(=O)[C@@H](Cc2ccccc2)NCC(=O)O)cc1 (relative stereo) [Example 47, HOOCCH2 -D-Phe-cis-Ohi-p-NHCH2 C6 H4 C(NH)NH2.HCl] | 0.01 × 10^6 (L/mole) | 12. ng/mL | 140 ng/mL | 270 ng/mL |  | 82. × 10^6 (L/mole) |  |  |
| N=C(N)c1cccc(CNC(=O)[C@@H]2CCCN2C(=O)[C@@H]2NCC[C@@H]3CCCC[C@@H]32)c1 [Example 25, D-1-Piq-Pro-m-NHCH2 -C6 H4 C(=NH)NH2.HCl] | 0.01 × 10^6 (L/mole) | 1,430 ng/mL | 34,600 ng/mL | 40,400 ng/mL |  |  |  |  |
| EtSO2 -D-Phe-Pro-p-NHCH2 -C6 H4 C(=NH)NH2.HCl [Example 23] | 0.31 × 10^6 (L/mole) | 7 ng/mL | 86 ng/mL | 120 ng/mL | 0.14 × 10^6 (L/mole) | 21 × 10^6 (L/mole) | 770 × 10^6 (L/mole) | 0.44 × 10^6 (L/mole) |
| N=C(N)c1ccc(CNC(=O)[C@@H]2CCCN2C(=O)[C@@H](CC2CCCCC2)NCCC(=O)O)cc1 [Example 52, HOOCCH2 CH2 -D-Cha-Pro-p-NHCH2 C6 H4 C(NH)NH2.HCl] | 0.01 × 10^6 (L/mole) | 6 ng/mL | 80 ng/mL | 170 ng/mL |  | 47. × 10^6 (L/mole) |  |  |
| NMI-D-Phe-Pro-Agm.HCl [Example 4] |  | 230 ng/mL |  |  |  |  | 13. × 10^6 (L/mole) |  |
| CCS(=O)(=O)N[C@H](CC1CCCCC1)C(=O)N1CCC[C@H]1C(=O)NCc1ccc(C(=N)N)cc1 [Example 80, EtSO2 -D-Cha-Pro-4-NHCH2 C6 H4 C(NH)NH2.HCl] |  | 4 ng/mL | 40 ng/mL | 130 ng/mL |  | 90. × 10^6 (L/mole) |  |  |
| D-hPro-N(PhCH2 CH2)Gly-p-NHCH2 -C6 H4 C(NH)NH2.2HCl [Example 21] | 0.002 × 10^6 (L/mole) | 160 ng/mL | 2,000 ng/mL | 1,000 ng/mL | 0.62 × 10^6 (L/mole) | 0.96 × 10^6 (L/mole) | 3.6 × 10^6 (L/mole) | 0.031 × 10^6 (L/mole) |
| CCS(=O)(=O)N[C@H](Cc1ccccc1)C(=O)N1CCC[C@H]1C(=O)NCCc1ccc(C(=N)N)cc1 [Example 26, EtSO2 -D-Phe-Pro-p-NHCH2 CH2 -C6 H4 C(=NH)NH2.HCl] | 0.01 × 10^6 (L/mole) | 37 ng/mL | 870 ng/mL | 750 ng/mL |  |  | 13. × 10^6 (L/mole) |  |
| N=C(N)c1ccc(CNC(=O)[C@@H]2C[C@@H]3CCCC[C@@H]3N2C(=O)[C@@H]2NCC[C@@H]3CCCC[C@@H]32)cc1 (relative stereo) [Example 42, D-1-Piq-cis-Ohi-p-NHCH2 C6 H4 C(NH)NH2.2HCl] | 0.01 × 10^6 (L/mole) | 20 ng/mL | 270 ng/mL | 320 ng/mL |  | 43. × 10^6 (L/mole) | 38. × 10^6 (L/mole) |  |
| N=C(N)c1ccc(CNC(=O)[C@@H]2C[C@@H]3CCCC[C@@H]3N2C(=O)[C@@H](CC2CCCCC2)NCC(=O)O)cc1 (relative stereo) [Example 49, HOOCCH2 -D-Cha-cis-Ohi-p-NHCH2 C6 H4 C(NH)NH2.HCl] |  | 5 ng/mL | 130 ng/mL | 130 ng/mL |  | 940. × 10^6 (L/mole) |  |  |
| CCS(=O)(=O)N[C@H](Cc1ccccc1)C(=O)N1CCC[C@H]1C(=O)NCc1ccc(NC(=N)N)cc1 [Example 34, EtSO2 -D-Phe-Pro-p-NHCH2 C6 H4 NHC(NH)NH2.HCl] | 0.01 × 10^6 (L/mole) | 530 ng/mL | 4,900 ng/mL | 5,500 ng/mL |  |  |  |  |
| EtSO2 -Phg-cis-Ohi-p-NHCH2 C6 H4 C(NH)NH2.HCl [Example 44] | 0.04 | 4. ng/mL | 100 ng/mL | 170 ng/mL | 0.66 |  |  | 1.8 |
| HO2 CCH2 -D-Cha-Pro-4-NHCH2 -2-amidinothiophene.HCl [Example 65] |  | 1 ng/mL | 48 ng/mL |  |  | 570. × 10^6 (L/mole) | 4,500 × 10^6 (L/mole) |  |
| HOOCCH2 -D-Phe-Pro-p-NHCH2 C6 H4 C(NH)NH2.HCl [Example 46] | 0.01 | 2. ng/mL | 67 ng/mL | 77 ng/mL |  | 48. |  |  |
| N=C(N)NCCCCCNC(=O)[C@@H]1CCCN1C(=O)[C@H](N)Cc1ccccc1 [Example 6, D-Phe-Pro-NH(CH2)5 NHC(NH)NH2.HCl] | < 0.001 | 390 ng/mL |  |  |  |  |  |  |
| N=C(N)c1ccc(CNC(=O)[C@@H]2C[C@@H]3CCCC[C@@H]3N2C(=O)[C@H]2C[C@H]3CCCC[C@H]3CN2)cc1 (relative stereo) [Example 43, D-3-Piq-cis-Ohi-p-NHCH2 C6 H4 C(NH)NH2.2HCl] | 0.01 × 10^6 (L/mole) | 280 ng/mL | 1,100 ng/mL | 930 ng/mL |  | 100. × 10^6 (L/mole) |  |  |
| CCS(=O)(=O)N[C@H](Cc1ccccc1)C(=O)N1[C@H](C(=O)NCc2ccc(C(=N)N)cc2)C[C@@H]2CCCC[C@@H]21 (relative stereo) [Example 45, EtSO2 -Phe-cis-Ohi-p-NHCH2 C6 H4 C(NH)NH2.HCl] |  | 8 ng/mL | 200 ng/mL | 330 ng/mL |  | 110. × 10^6 (L/mole) |  |  |
| N=C(N)c1ccc(CNC(=O)[C@@H]2CCCN2C(=O)[C@@H](CC2CCCCC2)NCC(=O)O)c(F)c1 [Example 71, HO2 CCH2 -D-Cha-Pro-4-NHCH2 -3-F-benzamidine.HCl] |  | 1 ng/mL | 89 ng/mL | 150 ng/mL |  | 240. × 10^6 (L/mole) |  |  |
| N=C(N)c1ccc(CNC(=O)[C@@H]2CCCN2C(=O)[C@H](N)CC2CCCCC2)cc1 [Example 51, D-Cha-Pro-p-NHCH2 C6 H4 C(NH)NH2.2HCl] | 0.01 × 10^6 (L/mole) | 2 ng/mL | 48 ng/mL | 110 ng/mL |  | 27. × 10^6 (L/mole) |  |  |
